The values below come from PubChem BioAssay (NCI).

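In this assay, cells in 96-well plates receive the compound at five concentrations for 48 hours. Endpoints are linearly interpolated between the surrounding concentrations. TGI: total growth inhibition.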 Some results are limits rather than exact numbers.

Some test systems named below: K-562 leukemia; HCT-15 colon; M14 melanoma; SNB-19 CNS; MCF7 breast; CAKI-1 renal; SK-MEL-2 melanoma; HCT-116 colon; OVCAR-5 ovarian; SK-MEL-28 melanoma; BT-549 breast; IGROV1 ovarian; ACHN renal; UO-31 renal; HS 578T breast; SF-295 CNS; SK-MEL-5 melanoma; 786-0 renal; OVCAR-4 ovarian; LOX IMVI melanoma.
What all share (assay): NCI-60 cell line screen, 48 h

As for `CCOC(=O)c1c[nH]c(C(=O)C=[N+]=[N-])c1C1CCN(CC)C1=S` (stereo not given), the TGI with K-562 leukemia, with HCT-15 colon, in the assay with M14 melanoma, with SNB-19 CNS, in the assay with MCF7 breast and in the assay on CAKI-1 renal was > 100 µM each time. The TGI in the assay with SK-MEL-2 melanoma, in the assay on HCT-116 colon, in the assay on OVCAR-5 ovarian, with SK-MEL-28 melanoma, in the assay with BT-549 breast and in the assay on IGROV1 ovarian was > 100 µM in each case. The TGI in the assay on ACHN renal, in the assay with UO-31 renal, in the assay on HS 578T breast, in the assay on SF-295 CNS, in the assay with SK-MEL-5 melanoma and with 786-0 renal was > 100 µM in each case. For the same molecule, the TGI in the assay on OVCAR-4 ovarian was > 100 µM.
Turning to `CCCc1nc2c(n1CC)C(=O)c1ccccc1C2=O`, the TGI in the assay on K-562 leukemia is > 100 µM; in the assay on HCT-15 colon, 98 µM; in the assay on M14 melanoma, 94 µM; in the assay on SNB-19 CNS it was > 100 µM; in the assay with MCF7 breast, > 100 µM; in the assay on HCT-116 colon it was > 100 µM. Also, the TGI in the assay with OVCAR-5 ovarian, in the assay with SK-MEL-28 melanoma, in the assay on BT-549 breast, in the assay with IGROV1 ovarian, in the assay with ACHN renal and in the assay with HS 578T breast was > 100 µM throughout. Moreover, the TGI was > 100 µM in the assay on SF-295 CNS, 88.7 µM in the assay with SK-MEL-5 melanoma, > 100 µM with 786-0 renal and > 100 µM in the assay on OVCAR-4 ovarian.
For `O=C(NCCN1CCCCC1)c1cccc(I)c1`, the TGI with K-562 leukemia, in the assay with HCT-15 colon, in the assay with M14 melanoma, in the assay with SNB-19 CNS, with MCF7 breast and with CAKI-1 renal was > 100 µM each time. For the same molecule, the TGI with OVCAR-5 ovarian, in the assay with SK-MEL-28 melanoma, with BT-549 breast, in the assay on IGROV1 ovarian, with ACHN renal and in the assay with UO-31 renal was > 100 µM each time. For the same molecule, the TGI with HS 578T breast, in the assay with SK-MEL-5 melanoma, in the assay on 786-0 renal, in the assay with LOX IMVI melanoma and in the assay on OVCAR-4 ovarian was > 100 µM in each case.
With `Cn1nnc2c3c(N(CCO)CCO)ccnc3ccc21`, the TGI in the assay on K-562 leukemia, with HCT-15 colon, in the assay on M14 melanoma, with SNB-19 CNS, with MCF7 breast and in the assay on CAKI-1 renal was > 100 µM throughout. In addition, the TGI in the assay with SK-MEL-2 melanoma, in the assay with HCT-116 colon, in the assay with OVCAR-5 ovarian, with BT-549 breast, in the assay with IGROV1 ovarian and with ACHN renal was > 100 µM each time. The TGI with UO-31 renal, with HS 578T breast, in the assay with SF-295 CNS, in the assay on SK-MEL-5 melanoma, in the assay on 786-0 renal and with LOX IMVI melanoma was > 100 µM in each case. In addition, the TGI with OVCAR-4 ovarian was > 100 µM.
Take `Cc1c(/C=N/NC(=S)N2CCCCC2)c(=O)n(-c2ccccc2)n1C`: the TGI with K-562 leukemia, in the assay on HCT-15 colon, in the assay on M14 melanoma, in the assay with SNB-19 CNS, in the assay with MCF7 breast and in the assay on CAKI-1 renal was > 100 µM each time. In addition, the TGI in the assay on HCT-116 colon is > 100 µM; with OVCAR-5 ovarian it was > 100 µM; in the assay on SK-MEL-28 melanoma, > 100 µM; in the assay with BT-549 breast it was > 100 µM; with IGROV1 ovarian, > 100 µM; with ACHN renal it was 98.5 µM. For the same molecule, the TGI in the assay on UO-31 renal, in the assay with HS 578T breast, in the assay on SF-295 CNS, in the assay with SK-MEL-5 melanoma, in the assay with 786-0 renal and with LOX IMVI melanoma was > 100 µM each time.
Take `CC(Cn1c2c(c3cc(O)ccc31)CCc1ccc(O)cc1-2)N(C)C` (stereo not given): the TGI in the assay on K-562 leukemia is > 100 µM; with HCT-15 colon, 30.2 µM; with M14 melanoma it was 28.8 µM; with SNB-19 CNS, 37.4 µM; in the assay with MCF7 breast, 36.3 µM; in the assay with CAKI-1 renal, 52.8 µM. For the same molecule, the TGI in the assay with SK-MEL-2 melanoma is 31.1 µM; in the assay on HCT-116 colon it was > 100 µM; in the assay on OVCAR-5 ovarian it was 37.2 µM; in the assay on BT-549 breast it was 36.8 µM; in the assay on IGROV1 ovarian, 29.1 µM; with ACHN renal it was 30.1 µM. Moreover, the TGI amounted to 28.3 µM in the assay with UO-31 renal; 46 µM in the assay on HS 578T breast; 45.4 µM in the assay on SF-295 CNS; 35.9 µM in the assay with 786-0 renal; 81 µM in the assay with LOX IMVI melanoma.
Turning to `COC(=O)[C@@](NC(=O)OCc1ccccc1)([C@H](C)O)C(F)(F)F`, the TGI in the assay with K-562 leukemia, with HCT-15 colon, in the assay with M14 melanoma, with SNB-19 CNS, with CAKI-1 renal and with SK-MEL-2 melanoma was > 100 µM throughout. In addition, the TGI in the assay with HCT-116 colon, in the assay with OVCAR-5 ovarian, in the assay on SK-MEL-28 melanoma, in the assay with BT-549 breast, with IGROV1 ovarian and in the assay on ACHN renal was > 100 µM each time. Also, the TGI with UO-31 renal, in the assay with HS 578T breast, in the assay on SF-295 CNS, with SK-MEL-5 melanoma, in the assay on 786-0 renal and in the assay with LOX IMVI melanoma was > 100 µM in each case. Besides, in the assay on OVCAR-4 ovarian, the TGI was > 100 µM.
